# From PMC7503848 (International Journal of Molecular Sciences, 2020)
# Where two headings read alike, the source gives them in different places. No end group written: not given here.
# T1: recombinant MTIP-His (61–204 residues) (Plasmodium falciparum, UniProt Q8I4W8 61-204)
# T1 construct: source: E. coli BL21 (DE3), purified (Ni-NTA, native conditions, dialysed against PBS); not shown: His6, C-terminal, kept
# T1 sequence: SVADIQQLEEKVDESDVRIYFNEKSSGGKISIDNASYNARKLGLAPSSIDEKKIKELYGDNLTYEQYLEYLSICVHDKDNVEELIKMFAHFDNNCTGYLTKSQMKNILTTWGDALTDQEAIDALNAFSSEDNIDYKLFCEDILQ
# T2: ZA1S peptide
# T2 construct: also called shortened ZA1
# T2 chain: DIDIDIMHE
# B1: Myosin A tail (798–818 residues), peptide (peptide)
# chain: NKNIPSLLRVQAHIRKKMVAQ
# notes: source: acquired from Genescript (peptide)
# B2: biotinylated myosin A tail (peptide, UniProt Q8IDR3 798-818, looked up)
# chain: NKNIPSLLRVQAHIRKKMVAQ
# modifications: also: biotinylated
# notes: also called myosin A peptide; MyoA tail
# B3: CFP10: Culture filtrate protein 10 kDa, Mycobacterial protein, positive control partner of ESAT6 (protein)
# chain: MAEMKTDAATLAQEAGNFERISGDLKTQIDQVESTAGSLQGQWRGAAGTAAQAAVVRFQEAANKQKQELDEISTNIRQAGVQYSRADEEQQQALSSQMGF
# Legend:
# [1] = molecular target: Myosin A-pTRGnn (myosin A tail, bacterial two-hybrid fusion) (Plasmodium falciparum) (UniProt Q8IDR3); assay: two-hybrid; bacterial two-hybrid, liquid β-galactosidase assay, relative Miller units, average of three assays
# [2] = system: myosin A tail; type: cell-based, Plasmodium falciparum
# [3] = system: myosin A tail; assay: ELISA-based interaction assay, ZA1 on coated myosin A tail; type: binding, Plasmodium falciparum; conditions: 500 ng myosin A tail coated, ZA1-His 0–2.5 µM overlaid, 2 h 37 °C, anti-His, 450 nm, triplicates
# Source text: The interaction between myosin A tail and ZA1 was confirmed through multiple protein–protein interaction studies. […] For this, myosin A tail was coated on the ELSIA plates, followed by overlaying of ZA1. After stringent washing, the binding of overlaid ZA1 protein was detected using an anti-His antibody.
# (§1) All wells were put up in triplicates.
# [4] = molecular target: myosin A-MTIP complex; assay: Competitive ITC, pre-bound myosin A-MTIP complex into ZA1; type: binding, Plasmodium falciparum; conditions: 25 °C, pre-bound myosin A-MTIP complex (150 µM each) in syringe, 10 µM ZA1 in cell
# Description: For the competitive ITC experiment, a pre-bound complex of MyoA-MTIP in an equal molar ratio (150 µM each) was taken in the syringe. The complex was used to titrate ZA1 (10 µM) present in the cell. As a control, the pre-bound MyoA-MTIP complex was titrated in buffer only. All parameters were kept identical to the one-on-one ITC experiment. Origin software was used for data analysis and for calculating binding parameters like stoichiometry (N), binding constant (Kd), and enthalpy change (ƍH).
# [5] = system: myosin A/MTIP complex; assay: Bacterial three-hybrid assay, disruption of myosin A/MTIP complex; type: cell-based, Plasmodium falciparum
# Source text: For bacterial three-hybrid experiments, MyoA-pTRG and MTIP-pBT were used to co-transform R1 competent cells. The resulting co-transformants were checked for the presence of both plasmids by PCR using gene and vector-specific primers (MyoA For/pTRG Rev, MTIP For/pBT Rev). The resulting blue colonies were used to prepare competent cells that were subsequently transformed with ZA1-pMTSA or control pMTSA plasmid and plated on X-gal indicator plates, both in the presence or absence of L-arabinose (2% w/v). The plates were incubated at 30 °C for 48 h. The color of the colonies indicated the formation or disruption of myosin A/MTIP complex. The background and validation of bacterial three-hybrid assay have been described previously.
# An arabinose gradient assay in liquid culture was performed, as described previously. Briefly, the mid-log phase culture was induced with varying concentrations of L-arabinose (0–4 mM) for 3 h at 37 °C. The cells were pelleted, and the levels of β-galactosidase were measured. E. coli BL21 (DE3) cells were induced with varying concentrations of L-arabinose (as described in the arabinose gradient assay). Whole-cell lysates of a 10 mL culture were used to analyze the expression of ZA1 using an anti-His antibody (1:2000 dilution).
# [6] = molecular target: myosin A tail; assay: Isothermal titration calorimetry, myosin A tail into ZA1; type: binding, Plasmodium falciparum; conditions: ITC200, 25 °C, phosphate buffer; 150 µM myosin A tail in syringe, 10 µM ZA1 in cell; single site model
# Description: ITC experiments were performed using ITC200 Microcalorimeter (Malvern, UK) at 25 °C in phosphate buffer. The cell and syringe volumes were kept 310 µL and 40 µL, respectively. The syringe was loaded with 100 µM MyoA tail for MyoA/MTIP interaction study and 150 µM for MyoA/ZA1 interaction. The sample cell was loaded with 10 µM each of MTIP and ZA1. MTIP and ZA1 were titrated using MyoA tail in injections of 2 µL each except for the first injection that was 0.4 µL. In between each titration, a 150-s interval for stirring was kept to ensure that the signal returns to baseline. Throughout the experiment, constant stirring at 300 rpm was maintained to ensure proper mixing of reaction components. For both experiments, a corresponding buffer control was also set up in which PBS was taken in the syringe. The enthalpy changes of titrations were measured, and the baseline values were subtracted from the test samples. The data analysis was carried out using Origin software and curve-fitted to obtain stoichiometry (N), dissociation constant (Kd), and enthalpy change (ƍH).
# [7] = molecular target: MTIP (Plasmodium falciparum, UniProt Q8I4W8); assay: Competitive ITC, pre-bound Myosin A-ZA1 complex into MTIP; type: binding; conditions: complex in syringe, MTIP in cell
# Description: Figure S1: Myosin A tail and expression of MTIP. (a) Synthesized Myosin A tail peptide (2.5 kDa) resolved on Tris-tricine polyacrylamide gel.
# (b) Purified MTIP-His by Ni-NTA Column chromatography. Commassie stained 15% polyacrylamide gel. Lane M: Marker, Lane 1: Purified MTIP. (17.4 kDa). Western blot of purified MTIP-His using anti-MTIP.
# Figure S2: Negative control for ELISA and ITC experiments. (a) 500 ng non-specific Mycobacterial protein ESAT6 was coated on ELISA plates and indicated concentrations of ZA1 and MTIP were overlaid respectively. No interaction was observed between the coated and overlaid proteins. (b) The raw calorimetric data denoting the amount of heat produced following each injection of Myosin A from syringe into cell containing buffer only. No heat changes were observed when Myosin A was added into buffer. (c) Heat changes for competitive binding when pre-bound Myosin A-ZA1 complex is titrated from syringe into MTIP in the cell. […]
# break when added into MTIP. […]
# [8] = system: ESAT6; assay: ELISA-based specificity control with unrelated protein ESAT6; type: binding, Mycobacterium tuberculosis; conditions: 500 ng ESAT6 coated, test protein overlaid, 450 nm
# Source text: as §1
# [9] = system: myosin A/MTIP complex; assay: Competitive ELISA, inhibition of myosin A/MTIP interaction; type: binding, Plasmodium falciparum; conditions: 500 ng myosin A tail coated, MTIP 1 µM, ZA1 0, 0.5, 1, 2, 5 µM, 2 h 37 °C, anti-MTIP, 450 nm, triplicates
# Description: For ELISA-based inhibition of the interaction between MyoA/MTIP complex using ZA1, 500 ng peptide was coated on Maxisorb ELISA plates, followed by overnight blocking at 4 °C. The bound peptide was overlaid with MTIP (1 µM) for 2 h at 37 °C. The plates were washed with wash buffer (1 × PBS, 0.05% Tween-20) thrice and overlaid with increasing concentrations of ZA1 (0 µM, 0.5 µM, 1 µM, 2 µM, 5 µM) for 2 h at 37 °C. […] Optical density was taken at 450 nm. All wells were put in triplicates.
# [10] = molecular target: T1, recombinant MTIP-His (61–204 residues); assay: ITC; ITC200, 25 °C, phosphate buffer; MyoA tail in the syringe (100 µM for MTIP, 150 µM for ZA1), 10 µM MTIP or ZA1 in the cell; single site model; conditions: both partners purified
# [11] = molecular target: T2, ZA1S peptide; assay: far-Western, overlay or dot blot; 5 µg ZA1S peptide, BSA and non-specific peptide spotted on nitrocellulose; overlaid with 5 µg/mL biotinylated myosin A tail in 1% BSA/PBST, 2 h, room temperature; anti-biotin antibody; conditions: both partners purified
# [12] = system: ESAT6; type: cell-based, Mycobacterium tuberculosis; conditions: ESAT6-pTRGnn versus CFP10-pBTnn, average of three independent assays ± standard deviation
# [13] = X-gal blue-white selection, DI-EL dicodon library, 30 °C, 48 h
molecule,measurement,setting,value
"MTIP-pBT (MTIP, bacterial two-hybrid fusion) (from UniProt Q8I4W8 61-204) (domain or fragment)",relative enzyme activity (Miller Units),[1],96.1 Miller Units
SGRHVFKELDIELDIDIDIDIDIDIDIELMHDIQLDIELDIDIMHMHDIPGDIDIMHSTMHQLDIELMHPGDIDIQLFKHVAAA [ZA3],Interaction with myosin A tail in library screening,[2]; [13],positive interactions
SGRHVFKPGMHELDIELELDIELDIDIDIELDIDIELDIDIDIDIQLYVDIELMHELDIDIRTELELDIPGELEFDIELDIDIFKHVAAA [ZA2],Interaction with myosin A tail in library screening,[2]; [13],positive interactions
SGRHVFKQLDIDIDIMHELDIELELDIDIDIMHPGDIDIDIDIDIQLDIELDIMHDIDIDIMHMHQLELELDIFKHVAAA [ZA1],Interaction with myosin A tail,[3],positive interaction between myosin A and ZA1 that was concentration-dependent
same,Kd,[4],57 µM
same,Colony color change (disruption of myosin A/MTIP complex),"[5]; E. coli triple co-transformant, X-gal plate with L-arabinose (2% w/v), 30 °C, 48 h","the color of the colonies changed from blue to white, indicating the disruption of myosin A/MTIP complex"
same,Strength of myosin A/MTIP interaction (β-galactosidase),"[5]; L-arabinose gradient 0–4 mM, 3 h, 37 °C, average of three independent assays",A reduction in the strength of interaction was observed with increasing amounts of ZA1
same,Completeness of myosin A/MTIP disruption,[5]; bacterial three-hybrid,we did not find a complete disruption of myosin A/MTIP complex
same,Interaction with myosin A tail in library screening,[2],positive interactions
same,Intensity of blue color on bacterial two-hybrid selection plate,"[2]; X-gal plate, versus the other library hits",maximum intensity of blue color
same,Relative enzyme activity (β-galactosidase),"[2]; myosin A-pTRGnn versus ZA1-pBTnn, average of three independent assays ± standard deviation",83.48 ± 0.82 Miller units
same,Kd,[6],719 nM
same,Heat changes on titration of pre-bound Myosin A-ZA1 complex into MTIP,[7],No heat changes are observed
same,Interaction with unrelated protein ESAT6,[8],no interaction was found
same,MTIP bound to myosin A tail,[9],The amount of MTIP bound to myosin A tail reduced with increasing ZA1
B1,Kd,[10],452 nM
same,dH,[10],-4.7 kcal/mol
B2,binding result,[11],binds
B3,"Relative enzyme activity (β-galactosidase), positive control",[12]; experiment of Figure 1c,79.17 ± 1.67 Miller Units
same,"Relative enzyme activity (β-galactosidase), positive control",[12]; experiment of Figure 2b,98.02 ± 2.07 Miller units
